Data taken from patent US20250129086A1, “COMPOUND FOR DEGRADING EGFR PROTEIN AND USE THEREOF” (TYK MEDICINES, INC., priority 2021, published 2025).

How the values were obtained:
[1] = tested on: PC-9 (EGFR exon 19 deletion); assay: Cell antiproliferative assay (CTG, 72 h), PC-9; assay type: cell-based, human; conditions: Homo sapiens, PC-9, 72 h
In short: (§1)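 Cells seeded at 1500-2500 per well, compounds added about 24 h later as a 1:4 gradient from 10,000 nM top concentration in triplicate. After 72 h, viability read by CellTiter-Glo luminescence relative to 0.1% DMSO and blank-medium controls; IC50 from curve fitting.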

[2] = tested on: HCC827 (exon 19 deletion mutation); assay: Cell antiproliferative assay (CTG, 72 h), HCC827; assay type: cell-based, human; conditions: Homo sapiens, HCC827, 72 h
In short: as §1

[3] = tested on: H1975 (EGFR L858R/T790M double mutation); assay: Cell antiproliferative assay (CTG, 72 h), H1975; assay type: cell-based, human; conditions: Homo sapiens, NCI-H1975, 72 h
In short: as §1

EGFR = target: T1, EGFR (Homo sapiens, UniProt P00533, DEL746-750); assay: EGFR PROTAC In Cell Western assay in HCC827; assay type: cell-based; conditions: HCC827, EGFR degradation, 16 hours of incubation
T1 construct: host or cells: HCC827
T1 sequence (P00533 with tags, fused parts or gaps DEL746-750): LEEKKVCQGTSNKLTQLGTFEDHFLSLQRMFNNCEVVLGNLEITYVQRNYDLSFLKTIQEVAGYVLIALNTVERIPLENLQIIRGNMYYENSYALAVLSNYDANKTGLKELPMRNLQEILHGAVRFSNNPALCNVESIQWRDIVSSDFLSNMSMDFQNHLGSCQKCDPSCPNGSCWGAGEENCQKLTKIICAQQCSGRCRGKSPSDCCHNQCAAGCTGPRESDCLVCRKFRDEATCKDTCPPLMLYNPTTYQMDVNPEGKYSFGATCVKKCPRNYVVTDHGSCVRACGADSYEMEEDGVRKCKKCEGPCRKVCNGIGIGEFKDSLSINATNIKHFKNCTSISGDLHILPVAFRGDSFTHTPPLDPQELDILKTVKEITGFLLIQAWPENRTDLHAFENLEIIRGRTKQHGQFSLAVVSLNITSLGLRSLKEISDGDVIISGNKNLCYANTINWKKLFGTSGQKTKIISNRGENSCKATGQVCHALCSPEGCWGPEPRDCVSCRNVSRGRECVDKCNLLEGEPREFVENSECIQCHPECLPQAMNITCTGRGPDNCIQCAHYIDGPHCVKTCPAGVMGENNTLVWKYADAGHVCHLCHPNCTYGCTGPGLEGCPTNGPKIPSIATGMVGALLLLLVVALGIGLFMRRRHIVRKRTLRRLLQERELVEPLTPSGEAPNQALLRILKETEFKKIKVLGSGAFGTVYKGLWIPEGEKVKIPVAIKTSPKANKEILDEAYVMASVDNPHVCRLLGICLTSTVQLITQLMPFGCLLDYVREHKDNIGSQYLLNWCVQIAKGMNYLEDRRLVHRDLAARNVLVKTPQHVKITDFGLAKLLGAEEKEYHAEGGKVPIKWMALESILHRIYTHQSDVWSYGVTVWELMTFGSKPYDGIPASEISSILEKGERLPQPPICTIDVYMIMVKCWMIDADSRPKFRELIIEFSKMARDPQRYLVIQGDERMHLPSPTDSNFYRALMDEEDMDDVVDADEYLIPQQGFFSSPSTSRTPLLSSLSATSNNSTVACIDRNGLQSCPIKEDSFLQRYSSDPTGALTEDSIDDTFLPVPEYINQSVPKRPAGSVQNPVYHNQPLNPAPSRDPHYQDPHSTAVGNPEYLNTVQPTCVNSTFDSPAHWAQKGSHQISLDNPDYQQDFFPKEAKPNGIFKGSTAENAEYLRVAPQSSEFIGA
From the text: Test Example 2 EGFR PROTAC in Cell Western Assay
HCC827 cell culture medium was purchased from Corning. Cell line HCC827 was purchased from BeNa Culture Collection; EGF Receptor (D38B1) XP Rabbit mAb antibody and β-Actin (8H10D10) Mouse mAb antibody were from CST. IRDye 800CW, IRDye 680RD, and Intercept blocking solution (PBS) were purchased from Licor. Triton-100 was purchased from sigma, and 96-well black cell culture imaging microtiter plates were purchased from Agilent.
1) HCC827 cells were cell counted and cells were inoculated into 96-well black cell culture imaging microtiter plates at a density of 40,000 cells per well, with 100 μl per well. The plate was incubated overnight in a CO2 incubator.
2) Day 1: A gradient dilution of the compound to be tested was added to the cells of the culture plate (with a starting concentration of […], 9 concentrations, a dilution ratio of 1:3, 2 duplicate wells), with a final concentration of DMSO being 0.5%, and a blank control of DMSO without compound. The plate was placed in the cell culture incubator for a final 16 hours of incubation.
3) The culture medium was removed from the 96 wells with a pipette and the residual medium was washed with […] of PBS per well on a shaker for 5 min. After the removal of PBS, cells were quickly fixed by adding 150 μl of fresh fixation buffer (3.7% paraformaldehyde) and incubated for 20 min at room temperature.
4) The fixation buffer was removed and […] of Triton elution buffer (0.3% Triton-100) was added to wash for four times on a shaker for 5 minutes each time.
5)[…] LI-COR Odyssey blocking solution was added and the cells were incubated for 1.5 hours at room temperature with slow shaking on a shaker.
6) To block the samples, a primary antibody against EGFR and Actin were prepared using Antibody Dilution Buffer at a ratio of 1:300. The blocking solution was poured out and the diluted primary antibody was added (at a total volume of 50 μl/per well). The cell plate was covered and incubated at 4° C. overnight.
7) The cell plate was washed four times with PBS+Triton X-100 for 5 minutes each time.
8) Fluorescently labeled secondary antibodies IRDye® 680RD and IRDye® 800CW were diluted with Antibody Dilution Buffer (with a ratio of 1:600, at a total volume of 50 μl/well) and then incubated for one hour at room temperature, protected from light.
9) The cell plate was washed four times with PBS+Triton X-100 for 5 minutes each time.
After pipetting the PBS thoroughly, the plate was inverted and imaged on a Burroughs imager. A multiple exposure program was selected, IRDye 680RD Blot was chosen for the first channel, and IRDye 800CW Blot was chosen for the second channel. […] The blank group was the DMSO group, EGFR/Actin was calculated as the EGFR value of the corresponding sample wells, and the degradation rate=100-100*EGFR signal/DMSO signal. The DC50 and Dmax of the degraded EGFR proteins were calculated by fitting curves using the Prism software, 3-parameter method.

SMILES	IC50 ([1]; Table 2, PC-9 cells) [nM]	IC50 ([1]; Table 3, PC-9 cells) [nM]	IC50 ([2]; Table 2, HCC827 cells) [nM]	IC50 ([2]; Table 3, HCC827 cells) [nM]	IC50 ([3]; Table 2, H1975 cells) [nM]	IC50 ([3]; Table 3, H1975 cells) [nM]	Dmax (EGFR; HCC827, Table 4) [%]	DC50 (EGFR; Table 4) [nM]	Dmax (EGFR; HCC827, Table 5) [%]	DC50 (EGFR; Table 5) [nM]
O=C1CCC(Nc2ccc(C3CCN(CC(=O)N4CCN(c5ccc(-c6cc(F)c7c(c6)C(=O)N(C(C(=O)Nc6nccs6)c6ncn8c6CCC8)C7)cc5)CC4)CC3)cc2)C(=O)N1 (centres unmarked) [Comparative Compound 1, reference compound]	≥ 1000	> 5000	≥ 1000	> 5000	100 to 1000	548	< 50	≥ 1000	–	–
COc1cc(N2CCC(N3CCN(C(=O)C4CCN(CC5CCN(c6ccc7c(c6)C(=O)N(C6CCC(=O)NC6=O)C7=O)CC5)CC4)CC3)CC2)ccc1Nc1ncc(Cl)c(Nc2ccccc2P(C)(C)=O)n1 (centres unmarked) [Comparative Compound 2, reference compound]	≥ 1000	1940	100 to 1000	221	100 to 1000	186	50 to 70	10 to 100	64.7	22.3
COc1cc(N2CCC(N3CCN(C(=O)CCCCN4CCN(c5ccc6c(c5)C(=O)N(C5CCC(=O)NC5=O)C6=O)CC4)CC3)CC2)ccc1Nc1ncc(Cl)c(Nc2ccccc2N(C)S(C)(=O)=O)n1 (centres unmarked) [Comparative Compound 3, reference compound]	100 to 1000	682	10 to 100	72.5	100 to 1000	386	50 to 70	10 to 100	56.4	15.2
COc1cc(C(=O)N2CCC(c3ccc(NC4CCC(=O)NC4=O)cc3)CC2)ccc1Nc1ncc(Cl)c(Nc2ccccc2C(C)=O)n1 (centres unmarked) [Compound T-130]	–	–	–	–	–	–	< 50	100 to 1000	–	–
COc1cc(N2CCN(C(=O)CN3CCC(c4ccc(NC5CCC(=O)NC5=O)cc4)CC3)CC2)ccc1Nc1ncc(C(F)(F)F)c(Nc2ccc(F)cc2F)n1 (centres unmarked) [Compound T-131]	–	–	–	–	–	–	< 50	10 to 100	–	–
COc1cc(N2CCC(N(C)C(=O)C3CCN(CC4CCN(c5ccc6c(c5)C(=O)N(C5CCC(=O)NC5=O)C6=O)CC4)CC3)CC2)ccc1Nc1ncc(Cl)c(Nc2ccccc2C(C)=O)n1 (centres unmarked) [Compound T-228]	–	–	–	–	10 to 100	–	< 50	100 to 1000	–	–
COc1cc(N2CCN(C(=O)CN3CCC(c4ccc(Cn5ccc(=O)[nH]c5=O)cc4)CC3)CC2)ccc1Nc1ncc(Cl)c(Nc2ccccc2C(C)=O)n1 [Compound T-332]	100 to 1000	–	100 to 1000	–	100 to 1000	–	–	–	–	–
COc1cc(N2CCN(C(=O)CN3CCC(c4ccc(CN5CCC(=O)NC5=O)cc4)CC3)CC2)ccc1Nc1ncc(Cl)c(Nc2ccccc2C(C)=O)n1 [Compound T-337]	100 to 1000	–	100 to 1000	–	100 to 1000	–	–	–	–	–
COc1cc(N2CCN(CC(=O)N3CCC(c4ccc(NC5CCC(=O)NC5=O)cc4)CC3)CC2)ccc1Nc1ncc(Cl)c(Nc2ccccc2C(C)=O)n1 (centres unmarked) [Compound T-338]	100 to 1000	–	100 to 1000	–	100 to 1000	–	–	–	–	–
C=CC(=O)Nc1cc(Nc2ncc(C(F)(F)F)c(Nc3ccccc3)n2)c(OC)cc1N1CCN(C(=O)CN2CCC(c3ccc(NC4CCC(=O)NC4=O)cc3)CC2)CC1 (centres unmarked) [Compound T-339]	100 to 1000	–	100 to 1000	–	100 to 1000	–	–	–	–	–
COc1cc(N2CCN(C(=O)CN3CCC(c4ccc(NC5CCC(=O)NC5=O)cc4)CC3)CC2)ccc1Nc1ncc(Cl)c(Nc2ccccc2C(=O)NC2CCCC2)n1 (centres unmarked) [Compound T-341]	≥ 1000	–	100 to 1000	–	10 to 100	–	–	–	–	–
COc1cc(N2CCN(C(=O)CN3CCC(c4ccc(NC5CCC(=O)NC5=O)cc4)CC3)CC2)ccc1Nc1ncc(Br)c(Nc2ccccc2C(=O)NC2CCCC2)n1 (centres unmarked) [Compound T-342]	100 to 1000	–	10 to 100	–	10 to 100	–	–	–	–	–
COc1cc(N2CCN(C(=O)CN3CCC(c4ccc(NC5CCC(=O)NC5=O)cc4)CC3)CC2)ccc1Nc1ncc(C(F)(F)F)c(Nc2ccccc2C(=O)NC2CCCC2)n1 (centres unmarked) [Compound T-343]	10 to 100	–	10 to 100	–	10 to 100	–	–	–	–	–
COc1cc(N2CCC(N(C)C(=O)CN3CCC(c4ccc(NC5CCC(=O)NC5=O)cc4)CC3)CC2)ccc1Nc1ncc(Cl)c(Nc2ccccc2C(C)=O)n1 (centres unmarked) [Compound T-353]	100 to 1000	–	100 to 1000	–	10 to 100	–	–	–	–	–
CNC(=O)c1ccccc1Nc1nc(Nc2cc(C)c(N3CCN(C(=O)CN4CCC(c5ccc(NC6CCC(=O)NC6=O)cc5)CC4)C(C)C3)cc2OC)ncc1Cl (centres unmarked) [Compound T-355]	10 to 100	–	10 to 100	–	10 to 100	–	–	–	–	–
CNC(=O)c1ccccc1Nc1nc(Nc2cc(C)c(N3CCN(C(=O)CN4CCC(c5ccc(NC6CCC(=O)NC6=O)cc5)CC4)C(C)C3)cc2OC)ncc1Br (centres unmarked) [Compound T-356]	10 to 100	–	10 to 100	–	10 to 100	–	–	–	–	–
CNC(=O)c1ccccc1Nc1nc(Nc2cc(C)c(N3CCN(C(=O)CN4CCC(c5ccc(NC6CCC(=O)NC6=O)cc5)CC4)C(C)C3)cc2OC)ncc1C(F)(F)F (centres unmarked) [Compound T-357]	10 to 100	–	10 to 100	–	10 to 100	–	–	–	–	–
CNC(=O)c1ccccc1Nc1nc(Nc2cc(C)c(N3CCN(C(=O)CN4CCC(c5ccc(NC6CCC(=O)NC6=O)cc5)CC4)CC3C)cc2OC)ncc1Br (centres unmarked) [Compound T-359]	10 to 100	–	10 to 100	–	10 to 100	–	–	–	–	–
CNC(=O)c1ccccc1Nc1nc(Nc2cc(C)c(N3CCN(C(=O)CN4CCC(c5ccc(NC6CCC(=O)NC6=O)cc5F)CC4)CC3)cc2OC)ncc1Cl (centres unmarked) [Compound T-367]	10 to 100	–	10 to 100	–	10 to 100	–	–	–	–	–
CNC(=O)c1ccccc1Nc1nc(Nc2cc(C)c(N3CCN(C(=O)CN4CCC(c5ccc(NC6CCC(=O)NC6=O)cc5F)CC4)CC3)cc2OC)ncc1Br (centres unmarked) [Compound T-368]	10 to 100	–	10 to 100	–	10 to 100	–	–	–	–	–
CNC(=O)c1ccccc1Nc1nc(Nc2cc(C)c(N3CCN(C(=O)CN4CCC(c5ccc(NC6CCC(=O)NC6=O)cc5F)CC4)CC3)cc2OC)ncc1C(F)(F)F (centres unmarked) [Compound T-369]	10 to 100	–	10 to 100	–	10 to 100	–	–	–	–	–
